Legend:
[1] = tested on: NFκB; test: NFκB assay: luciferase reporter in stable Jurkat T-cells, PMA/PHA stimulated; format: cell-based; conditions: Homo sapiens, PMA 50 ng/mL + PHA 1 μg/mL, 5 h, read-out: NFkB IC50
Description: (§1) Stable human Jurkat T-cells containing an NFκB binding site (from the MHC promoter) fused to a minimal SV-40 promoter driving luciferase expression were used in this experiment. Cells were split to 3×10^5 cells/mL every 2-3 days (cell concentration should not exceed 1×10^6 cells/mL to keep the cells proliferating in log phase). These cells were counted, resuspended in fresh medium containing 10% Serum-Plus at a density of 1×10^6 cells/mL and plated in 96 well round bottom plates (200 μL per well) 18 hours prior to starting the experiment.
(§2) Compounds of this invention, dissolved in dimethyl sulfoxide (3.3, 0.33 and 0.03 μg/mL), were then added to the 96 well plates containing the cells and the plates are incubated for 0.5 h at 37° C. Then 50 ng/mL of phorbol 12-myristate-13-acetate (PMA) and 1 μg/mL of phytohemagglutinin (PHA) was added to each well and the cells were incubated for an additional 5 h at 37° C. The plates were centrifuged at 2200 RPM for 3 minutes at room temperature and then the medium was removed. To each well was added 60 μL of cell lysis buffer and the plates were left at room temperature for 0.25 h. Then 40 μL of each cell extract was transferred to a black 96 well plate and 50 μL of luciferase substrate buffer was added. Luminescence was immediately measured using a Packard TopCount.

[2] = tested on: IL-8; test: Inhibition of PMA/PHA-induced IL-8 production (ELISA, supernatants of NFκB reporter assay); format: cell-based; conditions: Homo sapiens
Description: as §1, §2
(§3) Cytokine levels in the supernatants (25-50 μL aliquots) were determined by ELISA.

[3] = tested on: IL-2; test: Inhibition of PMA/PHA-induced IL-2 production (ELISA, supernatants of AP-1 reporter assay); format: cell-based; conditions: Homo sapiens
Description: as §1, §2
(§4) For AP-1, the assay was run as described above for NFκB except stable Jurkat T-cells were used that contained a the -73 collagenase promoter driving luciferase expression. In addition, the concentration of PMA used was 5 ng/mL.
as §3

[4] = tested on: AP-1; test: AP-1 assay: -73 collagenase promoter luciferase reporter in stable Jurkat T-cells, PMA/PHA stimulated; format: cell-based; conditions: Homo sapiens, PMA 5 ng/mL + PHA 1 μg/mL, 5 h
Description: as §1, §2, §4
The results of the above assays (expressed as IC50 's, μM) for representative compounds of this invention, as percent inhibition versus control, are presented in Table 3. β-actin was employed as a control […] indicating effects on transcription. The lack of β-actin activity evidences selectivity of the test compounds for the transcription factors AP-1 and NFκB.

[5] = tested on: mice; conditions: Morris et al., Transplantation Proceedings 1990; cited from earlier work
[6] = tested on: mice; conditions: Morris et al., Transplantation Proceedings 1990; cited from earlier work; remark: listed apart in the source

| SMILES | IC50 [1] | IC50 [2] | IC50 [3] | IC50 [4] | activity in the delayed-type hypersensitivity (oxazolone) model [5] | activity in the popliteal lymph node (PLN) model [6] |
| --- | --- | --- | --- | --- | --- | --- |
| CC1=CC(=O)N(Nc2nc(-c3ccccc3)nc3ccccc23)C1=O [Compound 1, 4-(N-AMINOCITRACONAMIDO)-2-PHENYLQUINAZOLINE] | 100 nM | 2 nM | 10 nM | 200 nM | – | – |
| CC1=CC(=O)N(Nc2nc(-c3cccs3)nc3cnccc23)C1=O [Compound 2, 4-(N-AMINOCITRACONAMIDO)-2-(2'-THIENYL)PYRIDOPYRIMIDINE] | 100 nM | 100 nM | 700 nM | 100 nM | – | – |
| CC1=CC(=O)N(Nc2nc(C(F)(F)F)nc3ccccc23)C1=O [Compound 3, 4-(N-AMINOCITRACONAMIDO)-2-TRIFLUOROMETHYLQUINAZOLINE] | 10 nM | 30 nM | 50 nM | 100 nM | – | – |
| COc1cccc2nc(C(F)(F)F)nc(NN3C(=O)C=C(C)C3=O)c12 [Compound 4, 4-(N-AMINOCITRACONAMIDO)-5-METHOXY-2-TRIFLUOROMETHYLQUNINAZOLINE] | 10 nM | 50 nM | 120 nM | 10 nM | – | – |
| CC1=CC(=O)N(Nc2nc(C(F)(F)F)nc3cccc(C)c23)C1=O [Compound 5, 4-(N-AMINOCITRACONAMIDO)-5-METHYL-2-TRIFLUOROMETHYLQUINAZOLINE] | 200 nM | 2 nM | 20 nM | 500 nM | – | – |
| CC1=CC(=O)N(Nc2nc(C(F)(F)F)nc3cc(Cl)ccc23)C1=O [Compound 6, 4-(N-AMINOCITRACONAMIDO)-7-CHLORO-2-TRIFLUOROMETHYLQUINAZOLINE] | 100 nM | 50 nM | 500 nM | 300 nM | – | – |
| CC1=CC(=O)N(Nc2nc(C(F)(F)F)nc3cc(N4CCCCC4)ccc23)C1=O [Compound 7, 4-(N-AMINOCITRACONAMIDO)-7-(N-PIPERIDYL)-2-TRIFLUOROMETHYLQUNINAZOLINE] | 100 nM | 5 nM | 70 nM | – | – | – |
| CSc1ccc2nc(C(F)(F)F)nc(NN3C(=O)C=C(C)C3=O)c2c1 [Compound 8, 4-(N-AMINOCITRACONAMIDO)-6-METHYLTHIO-2-TRIFLUOROMETHYLQUNINAZOLINE] | 60 nM | 50 nM | 40 nM | 90 nM | – | – |
| CC1=CC(=O)N(Nc2nc(C(F)(F)F)nc3ccc(S(C)(=O)=O)cc23)C1=O [Compound 10, 4-(N-AMINOCITRACONAMIDO)-6-METHYLSULFONYL-2-TRIFLUOROMETHYLQUNINAZOLINE] | 8000 nM | – | – | 10000 nM | – | – |
| CC1=CC(=O)N(Nc2nc(-c3cccs3)nc3ccccc23)C1=O [Compound 11, 4-(N-AMINOCITRACONAMIDO)-2-(2'-THIENYL)QUNINAZOLINE] | 40 nM | – | – | 70 nM | – | – |
| CC1=CC(=O)N(N(C)c2nc(-c3cccs3)nc3ccccc23)C1=O [Compound 12, 4-(N-METHYL-N-AMINOCITRACONAMIDO)-2-(2'-THIENYL)QUNINAZOLINE] | 2200 nM | – | – | 1700 nM | – | – |
| COc1cccc2nc(-c3cccs3)nc(NN3C(=O)C=C(C)C3=O)c12 [Compound 13, 4-(N-AMINOCITRACONAMIDO)-5-METHOXY-2-(2'-THIENYL)QUINAZOLINE] | 8 nM | – | – | 8 nM | – | – |
| COc1ccc2nc(-c3cccs3)nc(NN3C(=O)C=C(C)C3=O)c2c1 [Compound 14, 4-(N-AMINOCITRACONAMIDO)-6-METHOXY-2-(2'-THIENYL)QUNINAZOLINE] | 2 nM | – | – | 3 nM | – | – |
| COc1ccc2c(NN3C(=O)C=C(C)C3=O)nc(-c3cccs3)nc2c1 [Compound 15, 4-(N-AMINOCITRACONAMIDO)-7-METHOXY-2-(2'-THIENYL)QUINAZOLINE] | 10 nM | – | – | 20 nM | – | – |
| COc1cccc2c(NN3C(=O)C=C(C)C3=O)nc(-c3cccs3)nc12 [Compound 16, 4-(N-AMINOCITRACONAMIDO)-8-METHOXY-2-(2'-THIENYL)QUNINAZOLINE] | 20 nM | – | – | 20 nM | – | – |
| COc1cc2nc(-c3cccs3)nc(NN3C(=O)C=C(C)C3=O)c2cc1OC [Compound 17, 4-(N-AMINOCITRACONAMIDO)-6,7-DIMETHOXY-2-(2'-THIENYL)QUINAZOLINE] | 40 nM | – | – | 70 nM | – | – |
| COc1cc2c(NN3C(=O)C=C(C)C3=O)nc(-c3cccs3)nc2c(OC)c1OC [Compound 18, 4-(N-AMINOCITRACONAMIDO)-6,7,8-TRIMETHOXY-2-(2'-THIENYL)QUNINAZOLINE] | 10 nM | – | – | 20 nM | – | – |
| COc1cccc2nc(-c3cccs3)nc(N(C)N3C(=O)C=C(C)C3=O)c12 [Compound 19, 4-(N-METHYL-N-AMINOCITRACONAMIDO)-5-METHOXY-2-(2'-THIENYL)QUNINAZOLINE] | 100 nM | – | – | 70 nM | – | – |
| CC1=CC(=O)N(Nc2nc(-c3cccs3)nc3cccc(F)c23)C1=O [Compound 20, 4-(N-AMINOCITRACONAMIDO)-5-FLUORO-2-(2'-THIENYL)QUINAZOLINE] | 200 nM | – | – | 70 nM | – | – |
| CC1=CC(=O)N(Nc2nc(-c3cccs3)nc3cccc(Cl)c23)C1=O [Compound 21, 4-(N-AMINOCITRACONAMIDO)-5-CHLORO-2-(2'-THIENYL)QUINAZOLINE] | 20 nM | – | – | 30 nM | – | – |
| CC1=CC(=O)N(Nc2nc(-c3cccs3)nc3cccc(C)c23)C1=O [Compound 22, 4-(N-AMINOCITRACONAMIDO)-5-METHYL-2-(2'-THIENYL)QUNINAZOLINE] | 10 nM | – | – | 30 nM | – | – |
| CC1=CC(=O)N(Nc2nc(-c3cccs3)nc3cc(N(C)C)ccc23)C1=O [Compound 23, 4-(N-AMINOCITRACONAMIDO)-7-DIMETHYLAMINO-2-(2'-THIENYL)QUINAZOLINE] | 40 nM | – | – | 40 nM | – | – |
| O=P1(N(CCCl)CCCl)NCCCO1 (stereo not shown) [cyclophosphamide] | – | – | – | – | active | active |

— patent US5939421A, “Quinazoline analogs and related compounds and methods for treating inflammatory conditions” (Signal Pharmaceuticals, Inc., priority 1997, dated 1999)
